One assay has as its target T1, aurora-A (Homo sapiens, UniProt O14965).
T1 construct: purchased Upstate, Dundee, UK
T1 sequence (O14965 1-403): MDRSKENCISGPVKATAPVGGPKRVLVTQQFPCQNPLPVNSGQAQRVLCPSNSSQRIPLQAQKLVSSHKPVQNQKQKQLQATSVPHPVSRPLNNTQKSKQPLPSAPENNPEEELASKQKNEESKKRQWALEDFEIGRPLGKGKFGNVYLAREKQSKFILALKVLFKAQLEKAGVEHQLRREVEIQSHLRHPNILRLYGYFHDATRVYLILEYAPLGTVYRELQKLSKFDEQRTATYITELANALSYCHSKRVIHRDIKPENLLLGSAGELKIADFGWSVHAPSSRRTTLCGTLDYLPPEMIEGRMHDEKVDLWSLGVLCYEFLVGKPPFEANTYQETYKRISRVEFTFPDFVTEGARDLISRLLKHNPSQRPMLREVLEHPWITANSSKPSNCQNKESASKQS
Description: Aurora-A (human) kinase assay. It counts as biochemical. The note with it: Table 3, values without asterisk; read-out: Kinase inhibition Aurora A. On the procedure:
(§1) This was achieved by measurement of incorporation of radioactive phosphate from ATP into Kemptide substrate (LRRASLG), upon phosphorylation by commercially obtained aurora-A (human, Upstate, Dundee, UK). Assays were performed using 96-well plates and appropriate assay buffers (20 mM Tris, 25 mM β-glycerophosphate, 5 mM EGTA, 1 mM DTT, 1 mM sodium vanadate, pH 7.5), into which were added 2-5 ng of active enzyme with 500 μM substrate (Kemptide). The reactions were initiated by addition of MgATP mix (15 mM MgCl2+100 μM ATP with 15-25 kBq per well of [γ-^32P]-ATP) and mixtures incubated for 30 min at 30° C. Reactions were stopped by addition of an equal volume of 75 mM aq orthophosphoric acid, followed by filtration through p81 filterplates (Whatman Polyfiltronics, Kent, UK). After washing 4 times with 75 mM aq orthophosphoric acid, plates were dried, scintillant added and incorporated radioactivity measured in a scintillation counter (TopCount, Packard Instruments, Pangbourne, Berks, UK). Compounds for kinase assay were made up as 10 mM stocks in DMSO and diluted into 10% DMSO in assay buffer. Data was analysed using curve-fitting software (XLfit version 4.0.2, IDBS, Guildford, Surrey, UK) to determine IC50 values (concentration of test compound which inhibits kinase activity by 50%).

The next assay relates to Mia-PaCa-2. Briefly: MTT cytotoxicity assay, Mia-PaCa-2. It counts as cell-based. Particulars: Homo sapiens, after incubation. On the procedure:
(§2) The compounds of the invention were subjected to a standard cellular proliferation assay using human tumour cell lines obtained from the ATCC (American Type Culture Collection, 10801 University Boulevard, Manessas, Va. 20110-2209, USA). […] C.; Thomas, D. G.; Darling, J. L. Anti Cancer Drugs 1996, 7, 331-8; Loveland, B. E.; Johns, T. G.; Mackay, 1. R.; Vaillant, F.; Wang, Z. X.; Hertzog, P. J. Biochemistry International 1992, 27, 501-10). In short: cells were seeded into 96-well plates according to doubling time and incubated overnight at 37° C. […] MTT was made up as a stock of 5 mg/mL in cell media and filter-sterilised. Media was removed from cells followed by a wash with 200 μL PBS. MTT solution was then added at 20 μL per well and incubated in the dark at 37° C. for 4 h MTT solution was removed and cells again washed with 200 μL PBS. MTT dye was solubilised with 200 μL per well of DMSO with agitation. Absorbance was read at 540 nm and data analysed using curve-fitting software (GraphPad Prism version 3.00 for Windows, GrapbPad Software, San Diego Calif. USA) to determine IC50 values (concentration of test compound which inhibits cell growth by 50%).
(In general: Tetrazolium dyes change colour on reduction, which living cells bring about.)

A further assay concerns A2780. Briefly: MTT cytotoxicity assay, A2780. The class given is cell-based. Particulars: Homo sapiens, after incubation. On the procedure: as §2
A further assay addresses T2, aurora-B (Homo sapiens, UniProt Q96GD4).
T2 construct: purchased Upstate, Dundee, UK
Briefly: Aurora-B (human) kinase assay. Particulars: Table 3; read-out: Kinase inhibition Aurora B. It counts as biochemical. The method, then: as §1, with “obtained aurora-B” for “obtained aurora-A”, “added 75” for “added 2-5”, “of pre-activated” for “of active”, “for 60” for “for 30”
Aurora-B (human, Upstate, Dundee, UK) was pre-activated immediately prior to kinase assay in appropriate buffers (20 mM Tris, 25 mM β-glycerophosphate, 5 mM EGTA, 1 mM DTT, 1 mM sodium vanadate, pH 7.5) by incubating 15 μg of enzyme with 4 μg INCENP (Upstate, Dundee, UK) in the presence of MgATP mix (15 mM MgCl2+100 μM ATP) for 15 min at 30° C.

T2 sequence (Q96GD4 whole entry): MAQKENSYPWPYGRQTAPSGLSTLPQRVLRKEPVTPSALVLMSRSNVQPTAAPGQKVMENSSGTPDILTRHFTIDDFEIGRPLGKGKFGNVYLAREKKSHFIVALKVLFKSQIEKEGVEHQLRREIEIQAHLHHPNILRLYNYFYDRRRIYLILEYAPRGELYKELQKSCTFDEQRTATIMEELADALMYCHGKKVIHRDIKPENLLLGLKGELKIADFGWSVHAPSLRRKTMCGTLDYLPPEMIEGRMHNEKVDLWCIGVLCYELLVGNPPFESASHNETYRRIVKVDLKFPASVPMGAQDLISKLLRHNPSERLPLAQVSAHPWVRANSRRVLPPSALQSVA

For the compound `COc1cc(Nc2nccc(-c3c[nH]c4ccccc34)n2)cc(OC)c1` [Compound 14, N-(3,5-dimethoxyphenyl)-4-(1H-indol-3-yl)pyrimidin-2-amine], the IC50 at aurora-A was 563 nM.

As to `Cn1cc(-c2ccnc(Nc3ccc(N4CCOCC4)cc3)n2)c2ccccc21` [Compound 15, 4-(1-methyl-1H-indol-3-yl)-N-(4-morpholin-4-ylphenyl)pyrimidin-2-amine], at aurora-A, the IC50 was found to be 370 nM.

For `CC(=O)N1CCN(c2ccc(Nc3nccc(-c4cn(C)c5ccccc45)n3)cc2)CC1` [Compound 16, 4-(1-methyl-1H-indol-3-yl)-N-(4-acetylpiperazine-1-ylphenyl)pyrimidin-2-amine], at aurora-A, the IC50 came out at 235 nM.

Turning to `c1ccc2c(-c3ccnc(Nc4ccc5c(c4)OCO5)n3)c[nH]c2c1` [Compound 17, N-1,3-benzodioxol-5-yl-4-(1H-indol-3-yl)pyrimidin-2-amine], at aurora-A, the IC50 stood at 742 nM.

Regarding `O=C(C1CC1)n1cc(-c2ccnc(Nc3ccc(N4CCOCC4)cc3)n2)c2ccccc21` [Compound 18, 4-[1-(cyclopropylcarbonyl)-1H-indol-3-yl]-N-(4-morpholin-4-ylphenyl)pyrimidin-2-amine], on aurora-A, the IC50 was 3360 nM.

Turning to `CC(=O)n1cc(-c2ccnc(Nc3ccc(N4CCOCC4)cc3)n2)c2ccccc21` [Compound 19, 4-(1-acetyl-1H-indol-3-yl)-N-(4-morpholin-4-ylphenyl)pyrimidin-2-amine], the IC50 on aurora-A is 2190 nM.

With `CN1CCN(c2ccc(Nc3nccc(-c4c[nH]c5ccccc45)n3)cc2)CC1` [Compound 20, 4-(1H-indol-3-yl)-N-(4-methylpiperazin-1-ylphenyl)pyrimidin-2-amine], at aurora-A, the IC50 stood at 434 nM.

As for `COc1cccc2c(-c3ccnc(Nc4ccc(N5CCN(C(C)=O)CC5)cc4)n3)c[nH]c12` [Compound 21, 4-(7-methoxy-1H-indol-3-yl)-N-(4-acetylpiperazin-1-ylphenyl)pyrimidin-2-amine], the IC50 in the assay with Mia-PaCa-2 worked out at 1040 nM; at aurora-A, 234 nM.

As to `COc1ccc2c(-c3ccnc(Nc4ccc(N5CCN(C(C)=O)CC5)cc4)n3)c[nH]c2c1` [Compound 24], the IC50 in the assay with Mia-PaCa-2 is 723 nM; at aurora-A, 210 nM; in the assay on A2780 it was 576 nM.

For `CC(=O)N1CCN(c2ccc(Nc3nccc(-c4c[nH]c5c(Cl)cccc45)n3)cc2)CC1` [Compound 25], at aurora-A, the IC50 turned out to be 559 nM.

Turning to `CC(=O)N1CCN(c2ccc(Nc3nccc(-c4c[nH]c5cc(F)ccc45)n3)cc2)CC1` [Compound 26], the figures for the IC50 on aurora-A and on aurora-B were 194 nM and 175 nM, respectively.

Regarding `CC(=O)N1CCN(c2ccc(Nc3nccc(-c4c[nH]c5ccccc45)n3)cc2C)CC1` [Compound 27, 4-(1H-indol-3-yl)-N-[(4-acetylpiperazin-1-yl)-3-methylphenyl]pyrimidin-2-amine], the results for the IC50 at aurora-A and on aurora-B were 276 nM and 365 nM, respectively.

In the case of `Cc1cc(Nc2nccc(-c3c[nH]c4ccccc34)n2)ccc1N1CCSCC1` [Compound 28, 4-(1H-indol-3-yl)-N-(3-methyl-4-thiomorpholin-4-ylphenyl)pyrimidin-2-amine], the IC50 at aurora-A turned out to be 856 nM; at aurora-B, 636 nM.

`C[C@@H]1CN(c2ccc(Nc3nccc(-c4c[nH]c5ccccc45)n3)cc2)C[C@H](C)O1` [Compound 29, 4-(1H-indol-3-yl)-N-[(2R,6S)-2,6-dimethylmorpholin-4-ylphenyl]pyrimidin-2-amine]: the IC50 at aurora-A is 386 nM.

Turning to `C[C@H]1CN(c2ccc(Nc3nccc(-c4c[nH]c5ccccc45)n3)cc2)C[C@H](C)O1` [Compound 30, 4-(1H-indol-3-yl)-N-[(2S,6S)-2,6-dimethylmorpholin-4-ylphenyl]pyrimidin-2-amine], the IC50 on aurora-A is 1250 nM.

For `CC1CC(C)CN(c2ccc(Nc3nccc(-c4c[nH]c5ccccc45)n3)cc2)C1` (stereo not shown) [Compound 31, 4-(1H-indol-3-yl)-N-(3,5-dimethylpiperidin-1-ylphenyl)pyrimidin-2-amine], the IC50 on aurora-A came to 4510 nM.

The values above are taken from patent publication US20090318446A1, “4-(1H-Indol-3-yl)-Pyrimidin-2-Ylamine Derivatives and Their Use in Therapy” (Cyclacel Limited, priority 2005, published 2009).
